The record followed here is ChEMBL document CHEMBL3044830, “Synthesis, characterization, antibacterial, antifungal, and immunomodulating activities of gatifloxacin derivatives” (Med Chem Res, 2010).

Assay type in all cases: functional
The subject of one assay is Saccharomyces cerevisiae. Description: Antifungal activity against Saccharomyces cerevisiae assessed as zone of inhibition at 5 to 40 ug/ml after 7 days by disk diffusion method relative to gatifloxacin.
For assay [1], the system named is Trichophyton rubrum. The assay can be described thus: Antifungal activity against Trichophyton rubrum assessed as concentration required to obtain a zone of inhibition of 40 mm after 7 days by disk diffusion method. For orientation: A growth-free zone around the sample is the usual read-out of agar diffusion tests.
In assay [2] the test system is Shigella sp. Description: Antibacterial activity against Shigella typhi assessed as concentration required to obtain a zone of inhibition of 10 mm after 18 to 24 hr by disc diffusion method.
Assay [3] relates to Proteus mirabilis. Description: Antibacterial activity against Proteus mirabilis assessed as zone of inhibition at 5 to 40 ug/ml after 18 to 24 hr by disc diffusion method relative to gatifloxacin.
The test system of assay [4] is Pseudomonas aeruginosa. Description: Antibacterial activity against Pseudomonas aeruginosa assessed as concentration required to obtain a zone of inhibition of 5 mm after 18 to 24 hr by disk diffusion method.
Assay [5] has as its system Klebsiella pneumoniae. Description: Antibacterial activity against Klebsiella pneumoniae assessed as concentration required to obtain a zone of inhibition of 5 mm after 18 to 24 hr by disk diffusion method.
The subject of assay [6] is Shigella flexneri. Description: Antibacterial activity against Shigella flexneri assessed as concentration required to obtain a zone of inhibition of 20 mm after 18 to 24 hr by disk diffusion method.
The test system of another assay is Fusarium solani. Description: Antifungal activity against Fusarium solani assessed as concentration required to obtain a zone of inhibition of 40 mm after 7 days by disk diffusion method.
For assay [7], the system named is Trichophyton rubrum. The assay can be described thus: Antifungal activity against Trichophyton rubrum assessed as zone of inhibition at 5 to 40 ug/ml after 7 days by disk diffusion method relative to gatifloxacin.
The next assay deals with Escherichia coli. Description: Antibacterial activity against Escherichia coli assessed as zone of inhibition at 5 to 40 ug/ml after 18 to 24 hr by disk diffusion method relative to gatifloxacin.
The subject of assay [8] is Klebsiella pneumoniae. Description: Antibacterial activity against Klebsiella pneumoniae assessed as zone of inhibition at 5 to 40 ug/ml after 18 to 24 hr by disk diffusion method relative to gatifloxacin.
In assay [9] the test system is Trichophyton rubrum. Description: Antifungal activity against Trichophyton rubrum assessed as concentration required to obtain a zone of inhibition of 20 mm after 7 days by disk diffusion method.
Assay [10] has as its system Shigella sp. Description: Antibacterial activity against Shigella typhi assessed as zone of inhibition after 18 to 24 hr by disc diffusion method relative to gatifloxacin.
Assay [11] deals with Pseudomonas aeruginosa. Description: Antibacterial activity against Pseudomonas aeruginosa assessed as zone of inhibition at 5 to 40 ug/ml after 18 to 24 hr by disk diffusion method relative to gatifloxacin.
Assay [12] has as its system Klebsiella pneumoniae. The assay can be described thus: Antibacterial activity against Klebsiella pneumoniae assessed as concentration required to obtain a zone of inhibition of 10 mm after 18 to 24 hr by disk diffusion method.
The test system of the next assay is Candida albicans. The assay can be described thus: Antifungal activity against Candida albicans assessed as concentration required to obtain a zone of inhibition of 40 mm after 7 days by disk diffusion method.
Assay [13] has as its system Shigella flexneri. The assay can be described thus: Antibacterial activity against Shigella flexneri assessed as concentration required to obtain a zone of inhibition of 10 mm after 18 to 24 hr by disk diffusion method.
Assay [14] concerns Proteus mirabilis. The assay can be described thus: Antibacterial activity against Proteus mirabilis assessed as concentration required to obtain a zone of inhibition of 20 mm after 18 to 24 hr by disc diffusion method.
The subject of a further assay is Bacillus subtilis. The assay can be described thus: Antibacterial activity against Bacillus subtilis assessed as concentration required to obtain a zone of inhibition of 5 mm after 18 to 24 hr by disk diffusion method.

On to `COc1c(N2CCN(C(=O)c3ccccc3)C(C)C2)c(F)cc2c(=O)c(C(=O)O)cn(C3CC3)c12.O` (stereo not given), for which the “inhibition zone (IZ)” value in the assay with Saccharomyces cerevisiae amounted to 0%; in the assay with Proteus mirabilis [3], 78.8%; in the assay with Trichophyton rubrum [7], 185%; with Escherichia coli, 117.3%; with Klebsiella pneumoniae [8], 99.8%; in the assay on Shigella sp. [10], 80.2%. For the same molecule, the “inhibition zone (IZ)” value in the assay on Pseudomonas aeruginosa [11] is reported as 117.9%. In addition, the Activity in the assay with Trichophyton rubrum [1] worked out at 27 µg/mL; in the assay on Shigella sp. [2] it was 9 µg/mL; in the assay on Pseudomonas aeruginosa [4] it was 10 µg/mL; with Klebsiella pneumoniae [5], 8 µg/mL; in the assay with Shigella flexneri [6], 14 µg/mL; in the assay on Fusarium solani it was 19 µg/mL. Moreover, the Activity with Trichophyton rubrum [9] came out at 21 µg/mL; in the assay on Klebsiella pneumoniae [12], 14 µg/mL; with Candida albicans, 14 µg/mL; in the assay with Shigella flexneri [13] it was 13 µg/mL; with Proteus mirabilis [14] it was 12 µg/mL; in the assay on Bacillus subtilis, 12 µg/mL.
With `CCCCCCCC(=O)N1CCN(c2c(F)cc3c(=O)c(C(=O)O)cn(C4CC4)c3c2OC)CC1C.O` (stereo not given), the “inhibition zone (IZ)” value in the assay with Saccharomyces cerevisiae turned out to be 0%; in the assay on Proteus mirabilis [3], 92%; with Trichophyton rubrum [7], 127%; in the assay with Escherichia coli it was 90.78%; in the assay on Klebsiella pneumoniae [8], 113%; with Shigella sp. [10] it was 87.5%. For the same molecule, the “inhibition zone (IZ)” value with Pseudomonas aeruginosa [11] is 78.57%. Further, the Activity is 17 µg/mL with Trichophyton rubrum [1]; 8 µg/mL in the assay with Pseudomonas aeruginosa [4]; 13 µg/mL in the assay on Klebsiella pneumoniae [5]; 20 µg/mL with Shigella flexneri [6]; 19 µg/mL with Fusarium solani; 16 µg/mL with Trichophyton rubrum [9]. Besides, the Activity with Klebsiella pneumoniae [12] turned out to be 14 µg/mL; with Candida albicans, 21 µg/mL; in the assay on Shigella flexneri [13], 15 µg/mL; with Proteus mirabilis [14], 14 µg/mL; in the assay with Bacillus subtilis it was 10 µg/mL.
For the molecule `COc1c(N2CCN(C(C)=O)C(C)C2)c(F)cc2c(=O)c(C(=O)O)cn(C3CC3)c12.O` (stereo not given), the “inhibition zone (IZ)” value in the assay on Saccharomyces cerevisiae amounted to 0%; in the assay with Proteus mirabilis [3], 76.6%; with Trichophyton rubrum [7], 239%; with Escherichia coli it was 134.8%; in the assay on Klebsiella pneumoniae [8], 158%; in the assay with Shigella sp. [10] it was 113%. Further, in the assay on Pseudomonas aeruginosa [11], the “inhibition zone (IZ)” value was 150.1%. The Activity came to 34 µg/mL with Trichophyton rubrum [1]; 11 µg/mL in the assay with Pseudomonas aeruginosa [4]; 16 µg/mL in the assay with Klebsiella pneumoniae [5]; 24 µg/mL in the assay with Shigella flexneri [6]; 15 µg/mL in the assay on Fusarium solani; 28 µg/mL in the assay with Trichophyton rubrum [9]. Moreover, the Activity in the assay with Klebsiella pneumoniae [12] was found to be 23 µg/mL; in the assay on Candida albicans, 19 µg/mL; in the assay on Shigella flexneri [13] it was 22 µg/mL; in the assay on Proteus mirabilis [14], 12 µg/mL; in the assay with Bacillus subtilis, 11 µg/mL.
